# Assay results from patent publication US20070196902A1, “Method of detecting AZT resistance in HIV” (University of Pittsburgh, priority 2006, published 2007).
# Read-outs that look alike come from different tables or passages of the source.
# Tests used:
# [1] = test system: HIVLAI RT D67N/K70R; test: Drug susceptibility assay in P4/R5 cells, site-directed mutant; assay type: cell-based, HIV-1; conditions: for Fold-Resistance: D67N/K70R compared to wild-type; for IC50: D67N/K70R, mean ± SD
# Experimental: (§1) Drug susceptibility assays. NRTI susceptibility was determined in P4/R5 cells as described previously (Parikh, U. M., et al. 2005. Antimicrob. Agents Chemother. 49:1139-44). Briefly, threefold dilutions of inhibitor were added to P4/R5 cells in triplicate and cells were infected with an amount of virus that produced 100 relative units of light (RLU) in no drug, virus control wells. After 48 hours, the cells were lysed (Gal-Screen; Tropix/Applied Biosystems, Foster City, Calif.) and the RLU was measured using a ThermoLabSystems luminometer (Waltham, Mass.). The IC50 and fold-resistance were calculated as described above. IC50 values from at least three independent experiments were log10 transformed and compared for statistically significant differences using the two-sample Student's t test.
# (§2) Construction of mutant recombinant HIV-1. Mutant recombinant plasmid clones of virus were generated by oligonucleotide site-directed mutagenesis as described previously (Shi, C., and J. W. Mellors. 1997. A recombinant retroviral system for rapid […] analysis of human immunodeficiency virus type 1 susceptibility to reverse transcriptase inhibitors. Antimicrob. Agents Chemother. 41:2781-5), using the p6HRT-MO plasmid. p6HRT-MO contains the entire RT and protease coding sequence as previously described (Le Grice, S. F., and F. Gruninger-Leitch. 1990. Rapid purification of homodimer and heterodimer HIV-1 reverse transcriptase by metal chelate affinity chromatography. Eur. J. Biochem. 187:307-14) and four silent restriction sites (Xma I, Mlu I, Xba I, and NgoM IV from the 5′ to 3′ end of RT at codons 14, 358, 490 and 554, respectively). After site-directed mutagenesis (QIAamp kit, QIAGEN, Valencia, Calif.), the mutated RT was ligated into pxxHIV-1LAI MO that contains the entire genome of HIV-1LAI and the same silent restriction sites as p6HRT-MO. Infectious virus was generated by electroporating the mutated xxHIV-1LAI MO plasmid into MT-2 cells as described above. All mutations in recombinant viruses were confirmed by full-length sequencing of the entire RT coding region.
# [2] = test system: HIVLAI RT D67N/K70R/T215F; test: as above; assay type: cell-based, HIV-1; conditions: for Fold-Resistance: D67N/K70R/T215F compared to wild-type; for IC50: D67N/K70R/T215F, mean ± SD
# Experimental: as §1, §2
# [3] = test system: HIVLAI RT D67N/K70R/A371V/Q509L; test: as above; assay type: cell-based, HIV-1; conditions: for Fold-Resistance: D67N/K70R/A371V/Q509L compared to wild-type; for IC50: D67N/K70R/A371V/Q509L, mean ± SD
# Experimental: as §1, §2
# [4] = test system: HIVLAI RT D67N/K70R/T215F/A371V/Q509L; test: as above; assay type: cell-based, HIV-1; conditions: for Fold-Resistance: D67N/K70R/T215F/A371V/Q509L compared to wild-type; for cross-resistance compared with viruses without A371V/Q509L: HIV-1 containing D67N/K70R/T215F/A371V/Q509L; for IC50: D67N/K70R/T215F/A371V/Q509L, mean ± SD
# Experimental: as §1, §2
# [5] = test system: HIV-1 RT mutants with A371V and/or Q509L, alone or in combination with TAMs; test: Drug susceptibility of site-directed mutants, comparisons between mutants with and without A371V/Q509L; assay type: cell-based; conditions: D67N/K70R/A371V/Q509L and D67N/K70R/T215F/A371V/Q509L
# [6] = test system: Wild-type HIVLAI; test: Drug susceptibility assay in P4/R5 cells, recombinant virus; assay type: cell-based, HIV-1
# Experimental: as §1, §2
# [7] = test system: HIV-1 RT mutations D549N and H539N; conditions: cited from earlier work
# [8] = test system: HIV-1 RT D549N with TAMs D67N, K70R, T215Y and K219Q; conditions: D549N present with TAMs D67N; cited from earlier work
# [9] = test system: HIV-1 RT H539N; conditions: H539N mutation; cited from earlier work
# [10] = test system: HIV-1 RT D549N; conditions: D549N mutation; cited from earlier work
# [11] = Human immunodeficiency virus 1, P4/R5
SMILES,Fold-Resistance [1] [fold],"IC50 [1, 11] [µM]",Fold-Resistance [2] [fold],"IC50 [2, 11] [µM]",Fold-Resistance [3] [fold],"IC50 [3, 11] [µM]",Fold-Resistance [4] [fold],cross-resistance compared with viruses without A371V/Q509L [4],"IC50 [4, 11] [µM]",cross-resistance of viruses with A371V and Q509L in combination with TAMs compared with those with only TAMs [5],"IC50 [6, 11] [µM]",effect of the mutations on susceptibility [7],increase in resistance [8] [fold],increase in resistance (reduced susceptibility) [9] [fold],increase in resistance (reduced susceptibility) [10],IC50 [1] [µM],IC50 [2] [µM],IC50 [3] [µM],IC50 [4] [µM],"IC50 ([6]; Wild-type HIVLAI RT, mean ± SD, at least 3 independent experiments, read-out: IC50) [µM]"
Nc1nc(NC2CC2)c2ncn([C@H]3C=C[C@@H](CO)C3)c2n1 [abacavir],1.2,7.9 ± 0.4,2.4,15 ± 1.5,2.0,13 ± 2.5,3.0,greater cross-resistance,19 ± 4.5,Statistically significant increases in cross-resistance,6.4 ± 0.5,–,–,–,–,–,–,–,–,–
O=c1[nH]cnc2c1ncn2[C@H]1CC[C@@H](CO)O1 [didanosine],1.2,5 ± 0.9,1.6,6.8 ± 0.3,1.2,4.9 ± 0.9,1.6,–,6.6 ± 0.4,–,4.2 ± 0.9,no effect,–,–,–,–,–,–,–,–
O=C1Nc2ccc(Cl)cc2[C@@](C#CC2CC2)(C(F)(F)F)O1 [efavirenz],–,–,–,–,–,–,–,–,–,–,–,no effect,–,–,–,–,–,–,–,–
Nc1ccn([C@@H]2CS[C@H](CO)O2)c(=O)n1 [lamivudine],1.9,1 ± 0.3,7.0,3.8 ± 0.59,5.2,2.7 ± 1.4,15,–,7.5 ± 1.8,–,0.5 ± 0.1,–,–,–,–,–,–,–,–,–
Cc1cn([C@H]2C=C[C@@H](CO)O2)c(=O)[nH]c1=O [stavudine],1.4,10 ± 3.1,2.4,17 ± 4.6,1.3,9.6 ± 2.9,2.0,–,14 ± 4.4,–,7.2 ± 0.6,–,12.5,10,"2,4 fold",–,–,–,–,–
C[C@H](Cn1cnc2c(N)ncnc21)OCP(=O)(O)O [tenofovir],1.5,–,1.5,–,2.2,–,2.7,greater cross-resistance,–,trend toward decreased susceptibility,–,–,–,–,–,4.9 ± 1.5,4.9 ± 0.7,7.3 ± 1.3,9 ± 3.5,3.3 ± 0.9
